Measurements published in patent publication US11807871B2, “Complex human gut microbiome cultured in an anaerobic human gut-on-a-chip” (President and Fellows of Harvard College, priority 2018, dated 2023).

System: primary human colon epithelial cells infected with EHEC
Experiment: Colon chip EHEC infection, epithelial lesion analysis
Type: cell-based
Conditions: metabolites added individually to a colon-chip
Protocol: Referring generally to FIGS. 18A-18C, microbiome metabolites recapitulate species-specific tolerance in Colon Chips. Human or mouse intestinal microbiome metabolites (e.g., isolated from specific strains of bacterial or fecal samples incubated in a bioreactor) were added to the intestinal channel of optically clear, human colon chips that are lined by primary human colon epithelial cells and directly opposed to a second parallel vascular microchannel in which HIMVECs are cultured. The two channels are separated by a thin, porous, ECM-coated membrane. Human intestinal epithelium was isolated from resections or endoscopic tissue biopsies. Endoscopic biopsies were collected from macroscopicallynormal (grossly unaffected) areas of the colon undergoing endoscopy for abdominal complaints. Organoids were grown from these tissue samples and seeded into the upper chamber of a two channel closed top microfluidic device. Human intestinal microvascular endothelial cells (HIMECs) were obtained from ScienCell (Cat #2900). The intestinal luminal channel medium was switched to 5% (vol vol-1) human (Hmm) or mouse (Mmm) gut microbiome metabolites isolated from PolyFermS bioreactors, diluted in phosphate-buffered saline (PBS) containing calcium and magnesium (final osmolarity=300 mOsm kg-1), filtered through a 0.2 μm filter (Corning), and stored at −80° C.
For example, on day 8 of a colon chip culture, the luminal culture medium is replaced with the same medium supplemented with human or murine microbiome metabolites (diluted 1:20 in a PBS-water based solution to 300 mOsm kg-1), while continuing to flow the same endothelial culture medium through the vascular channel. Perfusion is continued for 24 hours, followed by introduction of EHEC (1.7×105; serotype O157:H7) into the apical lumen in the same medium for 3 hours under static conditions to allow for bacterial cell attachment; medium flow is then re-established and continued for 24 additional hours.
Referring to colon chip infection, colon chips were cultured in the intestinal lumen channel of a chip in 5% (vol vol-1) human or mouse gut microbiome metabolites isolated from PolyFermS bioreactors, diluted in phosphate-buffered saline (PBS; final osmolarity=300 mOsm kg-1) or 24 hours. The following day, the intestinal channel was infected with 1.7×105. EHEC-GFP or EHEC A fliC (both generated from NR-3 E. coli/EDL931; serotype O157:H7), by adding the bacteria into the channel lumen in medium again with or without Hmm or Mmm. […]
For epithelial lesion analysis, one day post-infection, colon chips were washed with PBS and fixed with 4% paraformaldehyde in PBS for 2 hours. […] The area occupied by cells and the total area of the chip were measured using Fiji software.

| SMILES | epithelial injury during a EHEC infection of the chip |
| --- | --- |
| Cc1ccc(C(=O)O)cc1C [3,4-dimethylbenzoic acid] | enhance epithelial injury |
| Cc1ccc(C(=O)O)cc1 [4-methyl benzoic acid] | enhance epithelial injury |
| CCCCCCC(=O)O [heptanoic acid] | enhance epithelial injury |
| CCCCCC(=O)O [hexanoic acid] | enhance epithelial injury |
